According to patent publication EP4722207A1, “OXOISOINDOLINYL-SUBSTITUTED TETRAHYDROPYRIMIDINEDIONE DERIVATIVE AND USE THEREOF” (Gluetacs Therapeutics (Shanghai) Co., Ltd., priority 2023, dated 2024):

Experiments:
WEE1 = target: T1, WEE1 (Homo sapiens, UniProt P30291+Q96SW2); test: Western-blot assay, substrate protein degradation in hPBMCs: WEE1; assay type: cell-based; settings: for WEE1 substrate protein remaining %: compounds at 50 nM and 500 nM, 24 hours; for substrate protein remaining % WEE1: 24 hours of compound treatment, 50 nM and 500 nM
T1 construct: effects of the compounds of the present disclosure on the expression of target proteins in cells; endogenous in cells; host or cells: human PBMCs (hPBMCs)

IKZF1 = target: T2, IKZF1 (Homo sapiens, UniProt Q13422+Q96SW2); test: Western-blot assay, substrate protein degradation in hPBMCs: IKZF1; assay type: cell-based; settings: for IKZF1 substrate protein remaining %: compounds at 50 nM and 500 nM, 24 hours; for substrate protein remaining % IKZF1: 24 hours of compound treatment, 50 nM and 500 nM
T2 construct: effects of the compounds of the present disclosure on the expression of target proteins in cells; endogenous in cells; host or cells: human PBMCs (hPBMCs)

IKZF2 = target: T3, IKZF2 (Homo sapiens, UniProt Q96SW2+Q9UKS7); test: Western-blot assay, substrate protein degradation in hPBMCs: IKZF2; assay type: cell-based; settings: for IKZF2 substrate protein remaining %: compounds at 50 nM and 500 nM, 24 hours; for substrate protein remaining % IKZF2: 24 hours of compound treatment, 50 nM and 500 nM
T3 construct: effects of the compounds of the present disclosure on the expression of target proteins in cells; endogenous in cells; host or cells: human PBMCs (hPBMCs)

IKZF3 = target: T4, IKZF3 (Homo sapiens, UniProt Q96SW2+Q9UKT9); test: Western-blot assay, substrate protein degradation in hPBMCs: IKZF3; assay type: cell-based; settings: for IKZF3 substrate protein remaining %: compounds at 50 nM and 500 nM, 24 hours; for substrate protein remaining % IKZF3: 24 hours of compound treatment, 50 nM and 500 nM
T4 construct: effects of the compounds of the present disclosure on the expression of target proteins in cells; endogenous in cells; host or cells: human PBMCs (hPBMCs)

CK1α = target: T5, CK1α (Homo sapiens, UniProt P48729+Q96SW2); test: Western-blot assay, substrate protein degradation in hPBMCs: CK1α; assay type: cell-based; settings: for CK1α substrate protein remaining %: compounds at 50 nM and 500 nM, 24 hours; for substrate protein remaining % CK1α: 24 hours of compound treatment, 50 nM and 500 nM
T5 construct: effects of the compounds of the present disclosure on the expression of target proteins in cells; endogenous in cells; host or cells: human PBMCs (hPBMCs)

GSPT1 = target: T6, GSPT1 (Homo sapiens, UniProt P15170+Q96SW2); test: Western-blot assay, substrate protein degradation in hPBMCs: GSPT1; assay type: cell-based; settings: for GSPT1 substrate protein remaining %: compounds at 50 nM and 500 nM, 24 hours; for substrate protein remaining % GSPT1: 24 hours of compound treatment, 50 nM and 500 nM
T6 construct: effects of the compounds of the present disclosure on the expression of target proteins in cells; endogenous in cells; host or cells: human PBMCs (hPBMCs)

MV-4-11 = test: Cell viability assay (CellTiter-Meiluncell Luminescent), tumor cell proliferation, MV-4-11; settings: Homo sapiens, MV4-11, 96 h; for IC50: read-out: inhibitory activity (IC50, nM) against tumor cells proliferation, MV-4-11; for inhibition at 0.01 µM: read-out: Inhibition Rate at 10 nM (%); for inhibition at 0.5 µM: read-out: Inhibition Rate at 500 nM (%)
H292 = test: Cell viability assay (CellTiter-Meiluncell Luminescent), tumor cell proliferation, H292; settings: Homo sapiens, NCI-H292, 96 h; for inhibition at 0.01 µM: read-out: Inhibition Rate at 10 nM (%); for inhibition at 0.5 µM: read-out: Inhibition Rate at 500 nM (%)

T6 sequence (P15170 whole entry): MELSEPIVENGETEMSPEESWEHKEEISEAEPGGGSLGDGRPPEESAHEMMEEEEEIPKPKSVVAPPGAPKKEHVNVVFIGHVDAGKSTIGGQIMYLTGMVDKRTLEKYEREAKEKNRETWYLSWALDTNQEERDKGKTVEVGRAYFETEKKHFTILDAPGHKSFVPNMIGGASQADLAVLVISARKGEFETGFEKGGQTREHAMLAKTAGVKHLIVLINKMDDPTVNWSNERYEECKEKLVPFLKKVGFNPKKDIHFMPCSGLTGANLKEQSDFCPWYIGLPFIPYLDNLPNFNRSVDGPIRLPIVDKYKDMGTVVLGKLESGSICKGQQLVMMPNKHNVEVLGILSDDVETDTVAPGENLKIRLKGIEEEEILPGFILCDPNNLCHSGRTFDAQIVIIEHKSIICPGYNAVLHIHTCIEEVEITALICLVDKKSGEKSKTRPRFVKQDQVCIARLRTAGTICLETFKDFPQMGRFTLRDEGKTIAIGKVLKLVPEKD
T6 sequence (Q96SW2 whole entry): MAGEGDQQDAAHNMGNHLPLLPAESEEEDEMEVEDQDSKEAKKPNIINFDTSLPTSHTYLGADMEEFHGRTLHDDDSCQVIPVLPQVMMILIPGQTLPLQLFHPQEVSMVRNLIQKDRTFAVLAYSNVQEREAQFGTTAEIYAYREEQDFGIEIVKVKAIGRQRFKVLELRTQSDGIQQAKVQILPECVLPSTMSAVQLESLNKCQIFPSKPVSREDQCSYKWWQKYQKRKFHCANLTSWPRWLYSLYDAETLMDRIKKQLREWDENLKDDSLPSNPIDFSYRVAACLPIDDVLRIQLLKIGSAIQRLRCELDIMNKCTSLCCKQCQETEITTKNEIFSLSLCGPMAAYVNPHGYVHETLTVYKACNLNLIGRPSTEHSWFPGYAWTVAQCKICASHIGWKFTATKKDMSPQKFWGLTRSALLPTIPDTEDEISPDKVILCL
T6 sequence (Q16531 whole entry partner): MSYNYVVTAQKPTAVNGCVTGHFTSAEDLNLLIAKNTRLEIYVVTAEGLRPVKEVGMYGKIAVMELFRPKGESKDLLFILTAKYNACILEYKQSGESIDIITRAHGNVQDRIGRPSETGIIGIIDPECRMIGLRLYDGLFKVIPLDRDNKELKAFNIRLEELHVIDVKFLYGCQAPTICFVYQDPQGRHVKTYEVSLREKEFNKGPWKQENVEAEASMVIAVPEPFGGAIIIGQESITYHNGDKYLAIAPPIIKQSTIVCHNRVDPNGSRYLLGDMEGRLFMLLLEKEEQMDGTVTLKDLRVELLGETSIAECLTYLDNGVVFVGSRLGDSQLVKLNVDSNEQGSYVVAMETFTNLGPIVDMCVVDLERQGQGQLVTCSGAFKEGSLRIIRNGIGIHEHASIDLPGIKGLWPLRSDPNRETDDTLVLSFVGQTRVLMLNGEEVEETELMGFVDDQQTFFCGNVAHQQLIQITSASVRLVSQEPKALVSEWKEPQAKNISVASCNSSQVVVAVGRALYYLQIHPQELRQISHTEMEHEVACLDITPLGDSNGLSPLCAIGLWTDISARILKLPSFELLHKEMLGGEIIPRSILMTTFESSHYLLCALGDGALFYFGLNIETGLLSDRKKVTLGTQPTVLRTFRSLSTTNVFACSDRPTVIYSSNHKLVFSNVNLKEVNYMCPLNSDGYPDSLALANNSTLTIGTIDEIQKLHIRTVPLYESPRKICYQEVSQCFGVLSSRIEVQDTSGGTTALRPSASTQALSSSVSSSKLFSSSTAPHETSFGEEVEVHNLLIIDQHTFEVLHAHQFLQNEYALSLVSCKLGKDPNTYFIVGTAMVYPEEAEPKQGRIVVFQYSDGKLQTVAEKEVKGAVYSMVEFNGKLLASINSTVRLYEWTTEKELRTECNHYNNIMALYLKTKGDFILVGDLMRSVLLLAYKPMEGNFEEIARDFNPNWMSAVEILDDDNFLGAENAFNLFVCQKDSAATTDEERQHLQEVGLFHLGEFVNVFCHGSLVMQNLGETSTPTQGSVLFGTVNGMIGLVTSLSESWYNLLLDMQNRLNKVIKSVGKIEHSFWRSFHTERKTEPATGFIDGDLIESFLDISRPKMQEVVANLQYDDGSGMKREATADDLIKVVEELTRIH
T3 sequence (Q9UKS7 whole entry): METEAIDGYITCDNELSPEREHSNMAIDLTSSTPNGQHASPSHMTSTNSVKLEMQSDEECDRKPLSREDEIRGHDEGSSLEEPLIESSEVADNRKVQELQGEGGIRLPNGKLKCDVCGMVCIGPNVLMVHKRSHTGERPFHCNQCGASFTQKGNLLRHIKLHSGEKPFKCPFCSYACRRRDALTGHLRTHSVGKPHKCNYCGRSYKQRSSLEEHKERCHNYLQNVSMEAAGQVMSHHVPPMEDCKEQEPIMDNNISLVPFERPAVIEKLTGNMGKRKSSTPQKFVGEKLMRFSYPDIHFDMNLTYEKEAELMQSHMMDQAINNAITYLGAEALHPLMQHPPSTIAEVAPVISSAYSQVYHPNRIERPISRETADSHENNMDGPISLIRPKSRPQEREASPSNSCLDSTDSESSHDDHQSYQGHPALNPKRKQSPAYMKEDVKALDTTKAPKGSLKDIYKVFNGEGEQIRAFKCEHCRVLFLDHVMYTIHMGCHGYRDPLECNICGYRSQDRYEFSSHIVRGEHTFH
T3 sequence (Q96SW2 whole entry): as the sequence (Q96SW2 whole entry) above
T3 sequence (Q16531 whole entry partner): as the sequence (Q16531 whole entry partner) above
T1 sequence (P30291 whole entry): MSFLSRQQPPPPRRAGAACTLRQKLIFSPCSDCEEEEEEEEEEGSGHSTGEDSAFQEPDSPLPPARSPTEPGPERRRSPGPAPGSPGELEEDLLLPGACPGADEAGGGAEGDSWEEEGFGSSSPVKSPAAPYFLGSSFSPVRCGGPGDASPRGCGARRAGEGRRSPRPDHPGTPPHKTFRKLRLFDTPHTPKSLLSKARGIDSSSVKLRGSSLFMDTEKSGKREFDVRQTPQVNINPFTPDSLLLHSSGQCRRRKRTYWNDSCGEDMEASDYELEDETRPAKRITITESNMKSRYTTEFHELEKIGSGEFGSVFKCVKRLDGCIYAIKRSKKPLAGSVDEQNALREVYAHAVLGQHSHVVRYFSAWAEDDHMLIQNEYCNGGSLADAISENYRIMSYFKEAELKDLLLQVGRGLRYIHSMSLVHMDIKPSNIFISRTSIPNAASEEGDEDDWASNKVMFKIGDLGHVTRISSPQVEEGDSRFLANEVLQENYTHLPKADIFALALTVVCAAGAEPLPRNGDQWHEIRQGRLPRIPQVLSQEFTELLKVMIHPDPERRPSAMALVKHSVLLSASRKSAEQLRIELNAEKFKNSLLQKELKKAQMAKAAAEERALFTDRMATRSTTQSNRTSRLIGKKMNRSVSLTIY
T1 sequence (Q96SW2 whole entry): as the sequence (Q96SW2 whole entry) above
T1 sequence (Q16531 whole entry partner): as the sequence (Q16531 whole entry partner) above
T2 sequence (Q13422 whole entry): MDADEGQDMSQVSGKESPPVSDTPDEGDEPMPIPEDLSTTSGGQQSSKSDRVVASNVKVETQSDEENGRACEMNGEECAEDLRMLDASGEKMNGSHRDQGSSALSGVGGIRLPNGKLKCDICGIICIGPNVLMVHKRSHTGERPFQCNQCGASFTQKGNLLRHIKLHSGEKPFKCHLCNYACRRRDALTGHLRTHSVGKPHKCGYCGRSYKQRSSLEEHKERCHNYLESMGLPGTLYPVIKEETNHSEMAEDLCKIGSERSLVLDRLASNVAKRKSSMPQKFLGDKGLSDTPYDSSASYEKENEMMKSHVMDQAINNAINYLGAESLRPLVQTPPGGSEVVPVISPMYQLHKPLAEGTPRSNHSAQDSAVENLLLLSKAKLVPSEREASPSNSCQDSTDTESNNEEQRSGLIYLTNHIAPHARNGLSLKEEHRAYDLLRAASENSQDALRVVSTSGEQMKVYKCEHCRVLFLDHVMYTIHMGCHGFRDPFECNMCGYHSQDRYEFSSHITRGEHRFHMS
T2 sequence (Q96SW2 whole entry): as the sequence (Q96SW2 whole entry) above
T2 sequence (Q16531 whole entry partner): as the sequence (Q16531 whole entry partner) above
T4 sequence (Q9UKT9 whole entry): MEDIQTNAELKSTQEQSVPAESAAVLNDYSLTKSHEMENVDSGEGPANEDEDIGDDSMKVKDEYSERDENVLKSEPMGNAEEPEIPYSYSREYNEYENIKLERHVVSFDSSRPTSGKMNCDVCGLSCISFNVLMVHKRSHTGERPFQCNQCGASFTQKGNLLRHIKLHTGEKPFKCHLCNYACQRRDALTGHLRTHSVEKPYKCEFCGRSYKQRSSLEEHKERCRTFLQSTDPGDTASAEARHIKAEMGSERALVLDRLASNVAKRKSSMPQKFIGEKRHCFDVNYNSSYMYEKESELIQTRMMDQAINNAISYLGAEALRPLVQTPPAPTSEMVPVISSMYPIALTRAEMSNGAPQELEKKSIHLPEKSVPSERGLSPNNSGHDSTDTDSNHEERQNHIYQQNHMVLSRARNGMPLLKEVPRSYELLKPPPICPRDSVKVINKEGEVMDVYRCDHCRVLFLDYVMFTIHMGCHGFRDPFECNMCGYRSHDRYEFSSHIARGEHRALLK
T4 sequence (Q96SW2 whole entry): as the sequence (Q96SW2 whole entry) above
T4 sequence (Q16531 whole entry partner): as the sequence (Q16531 whole entry partner) above

Row | Structure (SMILES) | IC50 (MV-4-11) [nM] | WEE1 substrate protein remaining % (WEE1) | IKZF1 substrate protein remaining % (IKZF1) | IKZF2 substrate protein remaining % (IKZF2) | IKZF3 substrate protein remaining % (IKZF3) | CK1α substrate protein remaining % (CK1α) | GSPT1 substrate protein remaining % (GSPT1) | also measured
1 | O=C1CCN(N2Cc3cc(CN4CCN(c5ccc(C(F)(F)F)cc5)CC4)ccc3C2=O)C(=O)N1 [GT-06700, 1-(1-oxo-5-((4-(4-(trifluoromethyl)phenyl)piperazin-1-yl)methyl)isoindolin-2-yl)dihydropyrimidine-2,4(1H,3H)-dione] | 50 to 100 | – | – | – | – | – | – | –
2 | CC1(C)CCC(CN2C3CCC2CN(Cc2ccc4c(c2)C(=O)N(N2CCC(=O)NC2=O)C4=O)C3)=C(c2ccc(Cl)cc2)C1 [GT-07887, 5-((8-((4'-chloro-5,5-dimethyl-3,4,5,6-tetrahydro-[1,1'-biphenyl]-2-yl)methyl)-3,8-diazabicyclo[3.2.1]octan-3-yl)methyl)-2-(2,4-dioxotetrahydropyrimidin-1(2H)-yl)isoindoline-1,3-dione] | – | – | – | – | – | – | – | inhibition at 0.01 µM (MV-4-11): 25 to 30%; inhibition at 0.5 µM (MV-4-11): 30 to 40%
3 | Cc1nc(N2CCN(Cc3ccc4c(c3)C(=O)N(N3CCC(=O)NC3=O)C4=O)CC2)c2c3c(sc2n1)CCCC3 [GT-08101, 2-(2,4-dioxotetrahydropyrimidin-1(2H)-yl)-5-((4-(2-methyl-5,6,7,8-tetrahydrobenzo[4,5]thieno[2,3-d]pyrimidin-4-yl)piperazin-1-yl)methyl)isoindoline-1,3-dione] | – | – | – | – | – | – | – | inhibition at 0.01 µM (MV-4-11): 18 to 25%; inhibition at 0.5 µM (MV-4-11): 25 to 30%
4 | O=C1CCN(N2C(=O)c3ccc(CN4CCN(c5nc(Cl)nc6ccsc56)CC4)cc3C2=O)C(=O)N1 [GT-08453, 5-((4-(2-chlorothieno[3,2-d]pyrimidin-4-yl)piperazin-1-yl)methyl)-2-(2,4-dioxotetrahydropyrimidin-1(2H)-yl)isoindoline-1,3-dione] | – | – | – | – | – | – | – | substrate protein remaining % WEE1 (WEE1): B (80%< substrate protein remaining %≤ 100%); substrate protein remaining % IKZF1 (IKZF1): A (0% ≤ substrate protein remaining % ≤ 80%); substrate protein remaining % IKZF2 (IKZF2): B (80%< substrate protein remaining %≤ 100%); substrate protein remaining % IKZF3 (IKZF3): A (0% ≤ substrate protein remaining % ≤ 80%); substrate protein remaining % CK1α (CK1α): A (0% ≤ substrate protein remaining % ≤ 80%); substrate protein remaining % GSPT1 (GSPT1): A (0% ≤ substrate protein remaining % ≤ 80%); inhibition at 0.01 µM (H292): 20 to 40%; inhibition at 0.5 µM (H292): 10 to 15%
5 | O=C1CCN(N2C(=O)c3ccc(CN4CCN(c5nc(N6CCOCC6)nc6ccsc56)CC4)cc3C2=O)C(=O)N1 [GT-08455, 2-(2,4-dioxotetrahydropyrimidin-1(2H)-yl)-5-((4-(2-morpholinothieno[3,2-d]pyrimidin-4-yl)piperazin-1-yl)methyl)isoindoline-1,3-dione] | – | – | – | – | – | – | – | substrate protein remaining % WEE1 (WEE1): B (80%< substrate protein remaining %≤ 100%); substrate protein remaining % IKZF1 (IKZF1): B (80%< substrate protein remaining %≤ 100%); substrate protein remaining % IKZF2 (IKZF2): B (80%< substrate protein remaining %≤ 100%); substrate protein remaining % IKZF3 (IKZF3): A (0% ≤ substrate protein remaining % ≤ 80%); substrate protein remaining % CK1α (CK1α): A (0% ≤ substrate protein remaining % ≤ 80%); substrate protein remaining % GSPT1 (GSPT1): A (0% ≤ substrate protein remaining % ≤ 80%); inhibition at 0.01 µM (H292): 5 to 10%; inhibition at 0.5 µM (H292): 15 to 20%

Second part, led by results:

Row | IC50 (MV-4-11) [nM] | Structure (SMILES) | WEE1 substrate protein remaining % (WEE1) | IKZF1 substrate protein remaining % (IKZF1) | IKZF2 substrate protein remaining % (IKZF2) | IKZF3 substrate protein remaining % (IKZF3) | CK1α substrate protein remaining % (CK1α) | GSPT1 substrate protein remaining % (GSPT1) | also measured
6 | 100 to 300 | O=C1CCN(N2Cc3cc(CN4CCN(c5ccccc5)CC4)ccc3C2=O)C(=O)N1 [GT-06696, 1-(1-oxo-5-((4-phenylpiperazin-1-yl)methyl)isoindolin-2-yl)dihydropyrimidine-2,4(1H,3H)-dione] | B ("B" is defined as 80%< substrate protein remaining %≤ 100%) | B ("B" is defined as 80%< substrate protein remaining %≤ 100%) | B ("B" is defined as 80%< substrate protein remaining %≤ 100%) | B ("B" is defined as 80%< substrate protein remaining %≤ 100%) | B ("B" is defined as 80%< substrate protein remaining %≤ 100%) | A ("A" is defined as 0% ≤ substrate protein remaining % ≤ 80%) | –
7 | 100 to 300 | O=C1CCN(N2Cc3cc(CN4CCN(c5cccc(Br)c5)CC4)ccc3C2=O)C(=O)N1 [GT-06698, 1-(5-((4-(3-bromophenyl)piperazin-1-yl)methyl)-1-oxoisoindolin-2-yl)dihydropyrimidine-2,4(1H,3H)-dione] | B ("B" is defined as 80%< substrate protein remaining %≤ 100%) | B ("B" is defined as 80%< substrate protein remaining %≤ 100%) | B ("B" is defined as 80%< substrate protein remaining %≤ 100%) | B ("B" is defined as 80%< substrate protein remaining %≤ 100%) | B ("B" is defined as 80%< substrate protein remaining %≤ 100%) | A ("A" is defined as 0% ≤ substrate protein remaining % ≤ 80%) | –
8 | 100 to 300 | COc1cccc(N2CCN(Cc3ccc4c(c3)CN(N3CCC(=O)NC3=O)C4=O)CC2)c1 [GT-06699, 1-(5-((4-(3-methoxyphenyl)piperazin-1-yl)methyl)-1-oxoisoindolin-2-yl)dihydropyrimidine-2,4(1H,3H)-dione] | B ("B" is defined as 80%< substrate protein remaining %≤ 100%) | B ("B" is defined as 80%< substrate protein remaining %≤ 100%) | B ("B" is defined as 80%< substrate protein remaining %≤ 100%) | B ("B" is defined as 80%< substrate protein remaining %≤ 100%) | B ("B" is defined as 80%< substrate protein remaining %≤ 100%) | A ("A" is defined as 0% ≤ substrate protein remaining % ≤ 80%) | –
9 | 500 to 1000 | O=C1CCN(N2Cc3cc(CN4CCN(c5ccc(F)cc5)CC4)ccc3C2=O)C(=O)N1 [GT-06702, 1-(5-((4-(4-fluorophenyl)piperazin-1-yl)methyl)-1-oxoisoindolin-2-yl)dihydropyrimidine-2,4(1H,3H)-dione] | B ("B" is defined as 80%< substrate protein remaining %≤ 100%) | B ("B" is defined as 80%< substrate protein remaining %≤ 100%) | B ("B" is defined as 80%< substrate protein remaining %≤ 100%) | B ("B" is defined as 80%< substrate protein remaining %≤ 100%) | A ("A" is defined as 0% ≤ substrate protein remaining % ≤ 80%) | A ("A" is defined as 0% ≤ substrate protein remaining % ≤ 80%) | –
10 | 500 to 1000 | O=C1CCN(N2Cc3cc(CN4CCN(c5ccccc5Cl)CC4)ccc3C2=O)C(=O)N1 [GT-06703, 1-(5-((4-(2-chlorophenyl)piperazin-1-yl)methyl)-1-oxoisoindolin-2-yl)dihydropyrimidine-2,4(1H,3H)-dione] | B ("B" is defined as 80%< substrate protein remaining %≤ 100%) | B ("B" is defined as 80%< substrate protein remaining %≤ 100%) | B ("B" is defined as 80%< substrate protein remaining %≤ 100%) | B ("B" is defined as 80%< substrate protein remaining %≤ 100%) | A ("A" is defined as 0% ≤ substrate protein remaining % ≤ 80%) | A ("A" is defined as 0% ≤ substrate protein remaining % ≤ 80%) | –
11 | 500 to 1000 | O=C1CCN(N2Cc3cc(CN4CCN(c5ccc(Cl)cc5)CC4)ccc3C2=O)C(=O)N1 [GT-06765, 1-(5-((4-(4-chlorophenyl)piperazin-1-yl)methyl)-1-oxoisoindolin-2-yl)dihydropyrimidine-2,4(1H,3H)-dione] | B ("B" is defined as 80%< substrate protein remaining %≤ 100%) | B ("B" is defined as 80%< substrate protein remaining %≤ 100%) | B ("B" is defined as 80%< substrate protein remaining %≤ 100%) | B ("B" is defined as 80%< substrate protein remaining %≤ 100%) | A ("A" is defined as 0% ≤ substrate protein remaining % ≤ 80%) | B ("B" is defined as 80%< substrate protein remaining %≤ 100%) | –
12 | 500 to 1000 | O=C1CCN(N2Cc3cc(CN4CCN(c5ccccc5Br)CC4)ccc3C2=O)C(=O)N1 [GT-06766, 1-(5-((4-(2-bromophenyl)piperazin-1-yl)methyl)-1-oxoisoindolin-2-yl)dihydropyrimidine-2,4(1H,3H)-dione] | A ("A" is defined as 0% ≤ substrate protein remaining % ≤ 80%) | A ("A" is defined as 0% ≤ substrate protein remaining % ≤ 80%) | A ("A" is defined as 0% ≤ substrate protein remaining % ≤ 80%) | A ("A" is defined as 0% ≤ substrate protein remaining % ≤ 80%) | A ("A" is defined as 0% ≤ substrate protein remaining % ≤ 80%) | A ("A" is defined as 0% ≤ substrate protein remaining % ≤ 80%) | –
